According to PubChem BioAssay (NCI):
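Assay format: 96-well plates, 48-hour exposure. Here, GI50 denotes the concentration required for 50% inhibition of growth. Definition used: TGI = concentration required for complete inhibition of growth.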

Legend:
Assay in all cases: growth of human tumour cells (NCI), 48 h
K-562 leukemia = system: K-562 leukemia
OVCAR-3 ovarian = system: OVCAR-3 ovarian
CAKI-1 renal = system: CAKI-1 renal
SK-MEL-5 melanoma = system: SK-MEL-5 melanoma
HL-60(TB) leukemia = system: HL-60(TB) leukemia
IGROV1 ovarian = system: IGROV1 ovarian
NCI-H226 lung = system: NCI-H226 lung
HOP-62 NSCLC = system: HOP-62 NSCLC
MALME-3M melanoma = system: MALME-3M melanoma
HCC-2998 colon = system: HCC-2998 colon
SK-MEL-2 melanoma = system: SK-MEL-2 melanoma
U251 CNS = system: U251 CNS
COLO 205 colon = system: COLO 205 colon
UO-31 renal = system: UO-31 renal
UACC-62 melanoma = system: UACC-62 melanoma
RXF 393 renal = system: RXF 393 renal
RPMI-8226 leukemia = system: RPMI-8226 leukemia
KM12 colon = system: KM12 colon
EKVX NSCLC = system: EKVX NSCLC
PC-3 prostate = system: PC-3 prostate
MOLT-4 leukemia = system: MOLT-4 leukemia
SNB-75 CNS = system: SNB-75 CNS
OVCAR-8 ovarian = system: OVCAR-8 ovarian
NCI/ADR-RES ovarian = system: NCI/ADR-RES ovarian
HCT-116 colon = system: HCT-116 colon
MDA-MB-231 breast = system: MDA-MB-231 breast
HCT-15 colon = system: HCT-15 colon
SF-295 CNS = system: SF-295 CNS
SN12C renal = system: SN12C renal
MDA-MB-435 = system: MDA-MB-435
UACC-257 melanoma = system: UACC-257 melanoma
CCRF-CEM leukemia = system: CCRF-CEM leukemia
NCI-H460 lung = system: NCI-H460 lung
A498 renal = system: A498 renal
BT-549 breast = system: BT-549 breast
HT29 colon = system: HT29 colon
SNB-19 CNS = system: SNB-19 CNS
OVCAR-5 ovarian = system: OVCAR-5 ovarian
SW-620 colon = system: SW-620 colon
ACHN renal = system: ACHN renal
HS 578T breast = system: HS 578T breast
MCF7 breast = system: MCF7 breast
SF-539 CNS = system: SF-539 CNS
DU-145 prostate = system: DU-145 prostate
SF-268 CNS = system: SF-268 CNS
SR leukemia = system: SR leukemia
A549 NSCLC = system: A549 NSCLC
OVCAR-4 ovarian = system: OVCAR-4 ovarian
SK-MEL-28 melanoma = system: SK-MEL-28 melanoma
LOX IMVI melanoma = system: LOX IMVI melanoma
TK-10 renal = system: TK-10 renal
NCI-H522 lung = system: NCI-H522 lung
786-0 renal = system: 786-0 renal
SK-OV-3 ovarian = system: SK-OV-3 ovarian
NCI-H23 lung = system: NCI-H23 lung
M14 melanoma = system: M14 melanoma
T-47D breast = system: T-47D breast

COc1cc(NC(=O)CSc2nc3ccc(C)cc3c(=O)n2Cc2ccccc2)cc(OC)c1OC
GI50 (K-562 leukemia): > 100 µM | TGI (K-562 leukemia): > 100 µM | GI50 (OVCAR-3 ovarian): 9.36 µM | TGI (OVCAR-3 ovarian): > 100 µM | GI50 (CAKI-1 renal): 5.08 µM | TGI (CAKI-1 renal): > 100 µM | GI50 (SK-MEL-5 melanoma): 3.67 µM | TGI (SK-MEL-5 melanoma): 23.7 µM | GI50 (HL-60(TB) leukemia): > 100 µM | TGI (HL-60(TB) leukemia): > 100 µM | GI50 (IGROV1 ovarian): 32.5 µM | TGI (IGROV1 ovarian): > 100 µM | GI50 (NCI-H226 lung): 3.2 µM | TGI (NCI-H226 lung): 22.3 µM | GI50 (HOP-62 NSCLC): 2.3 µM | TGI (HOP-62 NSCLC): 5.8 µM | GI50 (MALME-3M melanoma): 4.07 µM | TGI (MALME-3M melanoma): 31.3 µM | GI50 (HCC-2998 colon): > 100 µM | TGI (HCC-2998 colon): > 100 µM | GI50 (SK-MEL-2 melanoma): 3.38 µM | TGI (SK-MEL-2 melanoma): 10.6 µM | GI50 (U251 CNS): 3.93 µM | TGI (U251 CNS): 24 µM | GI50 (COLO 205 colon): > 100 µM | TGI (COLO 205 colon): > 100 µM | GI50 (UO-31 renal): 5.97 µM | TGI (UO-31 renal): > 100 µM | GI50 (UACC-62 melanoma): 2.93 µM | TGI (UACC-62 melanoma): > 100 µM | GI50 (RXF 393 renal): 2.24 µM | TGI (RXF 393 renal): 8.23 µM | GI50 (RPMI-8226 leukemia): 69.3 µM | TGI (RPMI-8226 leukemia): > 100 µM | GI50 (KM12 colon): 29.9 µM | TGI (KM12 colon): > 100 µM | GI50 (EKVX NSCLC): 8.59 µM | TGI (EKVX NSCLC): > 100 µM | GI50 (PC-3 prostate): 6.88 µM | TGI (PC-3 prostate): > 100 µM | GI50 (MOLT-4 leukemia): > 100 µM | TGI (MOLT-4 leukemia): > 100 µM | GI50 (SNB-75 CNS): 1.82 µM | TGI (SNB-75 CNS): 4.33 µM | GI50 (OVCAR-8 ovarian): 4.42 µM | TGI (OVCAR-8 ovarian): > 100 µM | GI50 (NCI/ADR-RES ovarian): 8.97 µM | TGI (NCI/ADR-RES ovarian): > 100 µM | GI50 (HCT-116 colon): 3.38 µM | TGI (HCT-116 colon): > 100 µM | GI50 (MDA-MB-231 breast): 3.42 µM | TGI (MDA-MB-231 breast): > 100 µM | GI50 (HCT-15 colon): > 100 µM | TGI (HCT-15 colon): > 100 µM | GI50 (SF-295 CNS): 7.01 µM | TGI (SF-295 CNS): > 100 µM | GI50 (SN12C renal): 25.4 µM | TGI (SN12C renal): > 100 µM | GI50 (MDA-MB-435): 9.55 µM | TGI (MDA-MB-435): > 100 µM | GI50 (UACC-257 melanoma): 4.86 µM | TGI (UACC-257 melanoma): > 100 µM | GI50 (CCRF-CEM leukemia): > 100 µM | TGI (CCRF-CEM leukemia): > 100 µM | GI50 (NCI-H460 lung): 7.24 µM | TGI (NCI-H460 lung): > 100 µM | GI50 (A498 renal): 1.01 µM | TGI (A498 renal): 5.55 µM | GI50 (BT-549 breast): 2.98 µM | TGI (BT-549 breast): 20 µM | GI50 (HT29 colon): > 100 µM | TGI (HT29 colon): > 100 µM | GI50 (SNB-19 CNS): 21.4 µM | TGI (SNB-19 CNS): > 100 µM | GI50 (OVCAR-5 ovarian): 58 µM | TGI (OVCAR-5 ovarian): > 100 µM | GI50 (SW-620 colon): > 100 µM | TGI (SW-620 colon): > 100 µM | GI50 (ACHN renal): 3.49 µM | TGI (ACHN renal): > 100 µM | GI50 (HS 578T breast): 3.23 µM | TGI (HS 578T breast): > 100 µM | GI50 (MCF7 breast): 9.98 µM | TGI (MCF7 breast): > 100 µM | GI50 (SF-539 CNS): 3.46 µM | TGI (SF-539 CNS): 13.8 µM | GI50 (DU-145 prostate): 84.7 µM | TGI (DU-145 prostate): > 100 µM | GI50 (SF-268 CNS): 6.91 µM | TGI (SF-268 CNS): > 100 µM | GI50 (SR leukemia): 52.7 µM | TGI (SR leukemia): > 100 µM | GI50 (A549 NSCLC): 10.5 µM | TGI (A549 NSCLC): > 100 µM | GI50 (OVCAR-4 ovarian): 3.41 µM | TGI (OVCAR-4 ovarian): 33.3 µM | GI50 (SK-MEL-28 melanoma): 7.04 µM | TGI (SK-MEL-28 melanoma): 59.7 µM | GI50 (LOX IMVI melanoma): 55 µM | TGI (LOX IMVI melanoma): > 100 µM | GI50 (TK-10 renal): 5.58 µM | TGI (TK-10 renal): 92.3 µM | GI50 (NCI-H522 lung): 4.63 µM | TGI (NCI-H522 lung): 47 µM | GI50 (786-0 renal): 3.2 µM | TGI (786-0 renal): 14.6 µM | GI50 (SK-OV-3 ovarian): 3.06 µM | TGI (SK-OV-3 ovarian): 8.58 µM | GI50 (NCI-H23 lung): 8.3 µM | TGI (NCI-H23 lung): 42.3 µM | GI50 (M14 melanoma): 8.38 µM | TGI (M14 melanoma): > 100 µM | GI50 (T-47D breast): 4.01 µM | TGI (T-47D breast): 66.9 µM
